Here are results for 15 compounds from publication PMC10547238, “Discovery of Potent Tetrazole Free Fatty Acid Receptor 2 Antagonists” (Journal of Medicinal Chemistry, 2023).

One experiment deals with T1, hFFA2 (Homo sapiens, UniProt O15552).
T1 construct: expressed in transfected cells; host or cells: Flp-In T-Rex 293 cells, doxycycline-induced
T1 sequence (O15552 1-330): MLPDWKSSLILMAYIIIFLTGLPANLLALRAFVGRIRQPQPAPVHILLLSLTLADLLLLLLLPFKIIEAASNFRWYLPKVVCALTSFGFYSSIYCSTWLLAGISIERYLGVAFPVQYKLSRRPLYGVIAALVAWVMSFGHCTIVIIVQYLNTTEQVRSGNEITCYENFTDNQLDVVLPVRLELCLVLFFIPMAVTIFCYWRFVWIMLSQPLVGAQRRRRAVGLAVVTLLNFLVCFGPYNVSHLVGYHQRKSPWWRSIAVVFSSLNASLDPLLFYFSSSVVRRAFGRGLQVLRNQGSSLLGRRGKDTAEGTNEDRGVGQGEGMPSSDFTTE
In words: cAMP assay, antagonist mode, Flp-In T-Rex 293 cells expressing hFFA2-eYFP. The conditions noted are these: for cAMP pIC50: hFFA2, antagonist mode, propionate at EC80, mean ± SEM, three or more experiments; for LLEcAMP: pIC50, cAMP – ClogP; for IC50 / hFFA2 cAMP (pIC50): supplementary CSV; for IC50: read-out: hFFA2 cAMP (pIC50) (converted). In kind it is cell-based. The method, then: (§1) The activity of the compounds on FFA2 was evaluated in two different functional antagonist assays, both using propionate at EC80 as the agonist. The GTPγS assay reflects receptor activation by directly assessing G protein recruitment, whereas the cAMP assay, performed in whole cells, reflects a physiologically relevant downstream second messenger.
The hFFA2-eYFP and hFFA3-eYFP Flp-In T-Rex 293 cell lines were maintained in Dulbecco’s modified Eagle mMedium (DMEM, ThermoFisher #11965092) supplemented with 10% (v/v) fetal bovine serum, 100 U/mL penicillin, 100 μg/mL streptomycin, 5 μg/mL blasticidin S, and 200 μg/mL hygromycin B and incubated at 37 °C and 5% CO2 in a humidified incubator. Cells were passaged at 70–80% confluency.
To determine the compound’s ability to activate or inhibit the Gi-coupled FFA2 or FFA3, intracellular cAMP concentrations were determined using Flp-In T-Rex293 cells induced to express hFFA2-eYFP or hFFA3-eYFP. Experiments were carried out using a homogeneous time-resolved FRET-based detection kit (CisBio, PerkinElmer #62AM9PEC) according to the manufacturer’s protocol. The day before the assay, 10,000 cells/well were plated in DMEM supplemented with penicillin/streptomycin (100 units/mL and […], respectively), 5 μg/mL blasticidin S, and 200 μg/mL hygromycin B in 96-well cell culture microplates (Greiner Bio-One) and induced to express hFFA2-eYFP or hFFA3-YFP with 100 ng/mL doxycycline.
In antagonist mode, the cells were pre-incubated for 20 min with antagonist test compounds in HBSS together with 50 μM IBMX at rt. Then, the cells were further incubated for 25 min at rt in HBSS with the agonist compound, sodium propionate at EC80 (51.4 μM for FFA2, 13.2 μM for FFA3), and 3 μM forskolin. Reactions were stopped, and the output was measured with an Envision plate reader using a time-resolved fluorescence protocol, measuring the light emission at 620 and 665 nm. All analyses were performed in triplicate and analyzed using GraphPad Prism (version 9).

The target of a further experiment is T2, human FFA2-eYFP (Homo sapiens, UniProt O15552).
T2 construct: expressed in transfected cells; host or cells: membranes of Flp-In T-Rex 293 cells induced to express the construct
T2 sequence (O15552 1-330): T1 sequence (O15552 1-330)
In words: [35S]GTPγS incorporation assay, membranes of Flp-In T-Rex 293 cells. In kind it is biochemical. The conditions noted are these: for GTPγS pIC50: hFFA2, propionate at EC80, mean ± SEM, three or more experiments; for LLEGTPγS: pIC50, GTPγS – ClogP. The method, then:
as §1
Functional activity of the compounds were tested in a [^35S]GTPγS incorporation assay using membranes of Flp-In T-Rex 293 cells induced to express human FFA2-eYFP. […] The reaction was initiated by addition of [^35S]GTPγS (100 nCi per reaction) containing 1 μM GDP and incubated at 30 °C for 60 min. The reaction was terminated by rapid vacuum filtration through GF/C glass fiber filter-bottom 96-well microplates (PerkinElmer Life Sciences, Beaconsfield, UK) using a UniFilter FilterMate Harvester (PerkinElmer). Unbound radioligands were removed from filters by three washes with ice-cold PBS. MicroScint-20 (PerkinElmer) was added to dried filters, and [^35S]GTPγS binding was quantified by liquid scintillation spectroscopy.

Turning to `O=C(Cc1ccncc1)N[C@@H](Cc1ccc(C(F)(F)F)cc1)Cc1nnn[nH]1` [Compound 16t, (S)-N-(1-(1H-Tetrazol-5-yl)-3-(4-(trifluoromethyl)phenyl)propan-2-yl)-2-(pyridin-4-yl)acetamide], on hFFA2, the “cAMP pIC50” value came out at 5.74 ± 0.13, the LLEcAMP is 4.67 and the IC50 is 2.95 µM. For the same compound, at human FFA2-eYFP, the “GTPγS pIC50” value amounted to 6.47 ± 0.15 and the LLEGTPγS turned out to be 5.40.

Turning to `O=C(CC1CCCC1)N[C@@H](Cc1ccc(C(F)(F)F)cc1)Cc1nnn[nH]1` [Compound 16o, (S)-N-(1-(1H-Tetrazol-5-yl)-3-(4-(trifluoromethyl)phenyl)propan-2-yl)-2-cyclopentylacetamide], on hFFA2, the “cAMP pIC50” value amounted to 5.24 ± 0.17, the LLEcAMP is given as 2.35 and the “hFFA2 cAMP (pIC50)” value amounted to 5.22 ± 0.18. On human FFA2-eYFP, the “GTPγS pIC50” value was 5.78 ± 0.14 and the LLEGTPγS worked out at 2.89.

For the compound `O=C(Cc1cccc(Cl)c1)N[C@H](CCc1nnn[nH]1)Cc1ccc(C(F)(F)F)cc1` [Compound 21, (R)-N-(4-(1H-Tetrazol-5-yl)-1-(4-(trifluoromethyl)phenyl)butan-2-yl)-2-(3-chlorophenyl)-acetamide], at hFFA2, the “cAMP pIC50” value amounted to 7.55 ± 0.14, the LLEcAMP is listed as 3.75 and the IC50 is 0.0309 µM. Besides, the “potency decrease on elongated tetrazole linker” value on hFFA2 (vs 16e, cAMP assay) is on record as 5–6 fold. Moreover, on human FFA2-eYFP, the “GTPγS pIC50” value was 7.72 ± 0.12 and the LLEGTPγS worked out at 3.92. For the same compound, on human FFA2-eYFP (vs 16e, GTPγS assay), the “potency decrease on elongated tetrazole linker” value is 5–6 fold.

For the compound `O=C(Cc1ccccn1)N[C@@H](Cc1ccc(C(F)(F)F)cc1)Cc1nnn[nH]1` [Compound 16r, (S)-2-(2-((1-(1H-Tetrazol-5-yl)-3-(4-(trifluoromethyl)phenyl)propan-2-yl)amino)-2-oxoethyl)pyridin-1-ium 2,2,2-trifluoroacetate], at hFFA2, the “cAMP pIC50” value was 5.93 ± 0.15, the LLEcAMP turned out to be 4.86 and the IC50 was 1.45 µM. At human FFA2-eYFP, the “GTPγS pIC50” value is recorded as 6.71 ± 0.17 and the LLEGTPγS worked out at 5.64.

For `O=C(Cc1cccc(F)c1)N[C@@H](Cc1ccccc1)Cc1nnn[nH]1` [Compound 16d, (S)-2-(3-Fluorophenyl)-N-(1-phenyl-3-(1H-tetrazol-5-yl)propan-2-yl)acetamide], at hFFA2, the “cAMP pIC50” value was 6.91 ± 0.07, the LLEcAMP amounted to 5.09 and the IC50 is 0.102 µM. At human FFA2-eYFP, the “GTPγS pIC50” value is listed as 7.47 ± 0.04 and the LLEGTPγS was 5.65.

As to `O=C(Cc1ccccc1)N[C@@H](Cc1ccc(C(F)(F)F)cc1)Cc1nnn[nH]1` [Compound 16a, (S)-N-(1-(1H-Tetrazol-5-yl)-3-(4-(trifluoromethyl)phenyl)propan-2-yl)-2-phenylacetamide], on hFFA2, the “cAMP pIC50” value is given as 7.89 ± 0.20, the LLEcAMP was 5.33 and the IC50 was 0.0117 µM. For the same compound, on human FFA2-eYFP, the “GTPγS pIC50” value is reported as 8.36 ± 0.09 and the LLEGTPγS came to 5.80.

As to `O=C(Cc1ccc(Cl)cc1)N[C@@H](Cc1ccc(C(F)(F)F)cc1)Cc1nnn[nH]1` [Compound 16f, (S)-N-(1-(1H-Tetrazol-5-yl)-3-(4-(trifluoromethyl)phenyl)propan-2-yl)-2-(4-chlorophenyl)acetamide], at hFFA2, the “cAMP pIC50” value stood at 8.08 ± 0.11, the LLEcAMP is recorded as 4.80 and the IC50 is 0.00933 µM. Moreover, on human FFA2-eYFP, the “GTPγS pIC50” value worked out at 8.07 ± 0.04 and the LLEGTPγS was 4.79.

`O=C(Cc1cccc(OC(F)(F)F)c1)N[C@@H](Cc1ccc(C(F)(F)F)cc1)Cc1nnn[nH]1` [Compound 16n, (S)-N-(1-(1H-Tetrazol-5-yl)-3-(4-(trifluoromethyl)phenyl)propan-2-yl)-2-(3-(trifluoromethoxy)phenyl)acetamide]: at hFFA2, the “cAMP pIC50” value stood at 7.44 ± 0.18, the LLEcAMP was 3.85 and the IC50 is 0.0468 µM. Further, at human FFA2-eYFP, the “GTPγS pIC50” value is recorded as 7.50 ± 0.23 and the LLEGTPγS worked out at 3.91.

Take `CCCCCC(=O)N[C@@H](Cc1ccc(C(F)(F)F)cc1)Cc1nnn[nH]1` [Compound 16p, (S)-N-(1-(1H-Tetrazol-5-yl)-3-(4-(trifluoromethyl)phenyl)propan-2-yl)hexanamide]: on hFFA2, the “cAMP pIC50” value is on record as 6.36 ± 0.12, the LLEcAMP was 3.45 and the IC50 is 0.355 µM. At human FFA2-eYFP, the “GTPγS pIC50” value came out at 6.37 ± 0.44 and the LLEGTPγS stood at 3.46.

As to `O=C(Cc1cccc(F)c1)N[C@@H](Cc1ccc(C(F)(F)F)cc1)Cc1nnn[nH]1` [Compound 16c, (S)-N-(1-(1H-Tetrazol-5-yl)-3-(4-(trifluoromethyl)phenyl)propan-2-yl)-2-(3-fluorophenyl)acetamide], at hFFA2, the “cAMP pIC50” value amounted to 8.26 ± 0.16 and the LLEcAMP came to 5.55. Also, on human FFA2-eYFP, the “GTPγS pIC50” value is 8.13 ± 0.04 and the LLEGTPγS turned out to be 5.42.

For `CCOc1cccc(CC(=O)N[C@@H](Cc2ccc(C(F)(F)F)cc2)Cc2nnn[nH]2)c1` [Compound 16m, (S)-N-(1-(1H-Tetrazol-5-yl)-3-(4-(trifluoromethyl)phenyl)propan-2-yl)-2-(3-ethoxyphenyl)acetamide], at hFFA2, the “cAMP pIC50” value was found to be 7.77 ± 0.12, the LLEcAMP worked out at 4.76 and the IC50 was 0.0158 µM. On human FFA2-eYFP, the “GTPγS pIC50” value came out at 8.05 ± 0.19 and the LLEGTPγS is reported as 5.04.

In the case of `O=C(Cc1cccc(C(F)(F)F)c1)N[C@@H](Cc1ccc(C(F)(F)F)cc1)Cc1nnn[nH]1` [Compound 16i, (S)-N-(1-(1H-Tetrazol-5-yl)-3-(4-(trifluoromethyl)phenyl)propan-2-yl)-2-(3-(trifluoromethyl)phenyl)acetamide], on hFFA2, the “cAMP pIC50” value is on record as 7.68 ± 0.11, the LLEcAMP is reported as 4.23 and the IC50 was 0.0158 µM. Besides, at human FFA2-eYFP, the “GTPγS pIC50” value stood at 8.05 ± 0.21 and the LLEGTPγS was found to be 4.60.

`O=C(N[C@@H](Cc1ccc(C(F)(F)F)cc1)Cc1nnn[nH]1)C1Cc2ccccc21` (stereo partly drawn) [Compound 16b, N-((S)-1-(1H-Tetrazol-5-yl)-3-(4-(trifluoromethyl)phenyl)propan-2-yl)bicyclo[4.2.0]octa-1(6),2,4-triene-7-carboxamide]: on hFFA2, the “cAMP pIC50” value was found to be 7.96 ± 0.03, the LLEcAMP turned out to be 5.39 and the “hFFA2 cAMP (pIC50)” value is reported as 7.95 ± 0.12. On human FFA2-eYFP, the “GTPγS pIC50” value was 8.06 ± 0.06 and the LLEGTPγS is on record as 5.49.

For `O=C(Cc1ccc(Cl)nc1)N[C@@H](Cc1ccc(C(F)(F)F)cc1)Cc1nnn[nH]1` [Compound 16v, (S)-5-(2-((1-(1H-Tetrazol-5-yl)-3-(4-(trifluoromethyl)phenyl)propan-2-yl)amino)-2-oxoethyl)-2-chloropyridin-1-ium 2,2,2-trifluoroacetate], on hFFA2, the “cAMP pIC50” value was 6.98 ± 0.13, the LLEcAMP was 5.20 and the IC50 is 0.0955 µM. Besides, at human FFA2-eYFP, the “GTPγS pIC50” value is 7.20 ± 0.14 and the LLEGTPγS was 5.42.

For the compound `O=C(CCc1ccccc1)N[C@@H](Cc1ccc(C(F)(F)F)cc1)Cc1nnn[nH]1` [Compound 16q, (S)-N-(1-(1H-Tetrazol-5-yl)-3-(4-(trifluoromethyl)phenyl)propan-2-yl)-3-phenylpropanamide], on hFFA2, the “cAMP pIC50” value is 6.78 ± 0.14, the LLEcAMP came to 3.89 and the IC50 is 0.186 µM. Besides, at human FFA2-eYFP, the “GTPγS pIC50” value is given as 7.19 ± 0.04 and the LLEGTPγS is 4.30.
